Measured values taken from PubChem BioAssay AID1963856 (Molecular Pharmacology Branch, DTP, NCI, 2024).

Test system: LG0567-F671-PDC KRAS tumor spheroid viability
Test: Anticancer human tumor LG0567-F671-PDC patient-derived lung adenocarcinoma cell line growth inhibition [KRAS2]
Conditions: spheroids with HUVEC and MSC; for IC50: curve of first compound; for viability, T/C: stronger effect = lower value
Procedure, shortened: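 KRAS-mutant tumor cells were grown as spheroids with HUVEC endothelial cells and human MSCs as stroma. Targeted agents were tested alone and with KRAS pathway inhibitors. Doses started at or near clinical Cmax, or 10 microM, descending half-log.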

[1] = second compound 0.1 µM, first compound 0.0316 µM
[2] = second compound 0.1 µM, first compound 0.1 µM
[3] = second compound 0.316 µM, first compound 0.0316 µM
[4] = second compound 0.316 µM, first compound 0.1 µM
[5] = second compound 1 µM, first compound 0.0316 µM
[6] = second compound 1 µM, first compound 0.1 µM
[7] = second compound 3.16 µM, first compound 0.0316 µM
[8] = second compound 3.16 µM, first compound 0.1 µM
[9] = second compound 10 µM, first compound 0.0316 µM
[10] = second compound 10 µM, first compound 0.1 µM
[11] = second compound 0.1 µM, first compound 0.316 µM
[12] = second compound 0.1 µM, first compound 1 µM
[13] = second compound 0.1 µM, first compound 3.16 µM
[14] = second compound 0.1 µM, first compound 10 µM
[15] = second compound 0.316 µM, first compound 0.316 µM
[16] = second compound 0.316 µM, first compound 1 µM
[17] = second compound 0.316 µM, first compound 3.16 µM
[18] = second compound 0.316 µM, first compound 10 µM
[19] = second compound 1 µM, first compound 0.316 µM
[20] = second compound 1 µM, first compound 1 µM
[21] = second compound 1 µM, first compound 3.16 µM
[22] = second compound 1 µM, first compound 10 µM
[23] = second compound 3.16 µM, first compound 0.316 µM
[24] = second compound 3.16 µM, first compound 1 µM
[25] = second compound 3.16 µM, first compound 3.16 µM
[26] = second compound 3.16 µM, first compound 10 µM
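Note: drug exposure lasted seven days after spheroids formed for three days.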
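Throughout, for viability, T/C: 100% = DMSO vehicle control viability.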

## CC(C)n1nc(-c2ccc3oc(N)nc3c2)c2c(N)ncnc21 + COc1cc2nc(C)nc(NC(C)c3cc(N)cc(C(F)(F)F)c3)c2cc1OC1CCOC1
Second compound 0.1 µM
  IC50: 0.056 µM
Second compound 0.316 µM
  IC50: 0.0157 µM
Second compound 1 µM
  IC50: 0.00292 µM
Second compound 3.16 µM
  IC50: 0.000992 µM
Second compound 10 µM
  IC50: < 0.000316 µM
Second compound 0.1 µM, first compound 0.000316 µM
  viability, T/C: 76.4%
Second compound 0.1 µM, first compound 0.001 µM
  viability, T/C: 73.5%
Second compound 0.1 µM, first compound 0.00316 µM
  viability, T/C: 60.4%
Second compound 0.1 µM, first compound 0.01 µM
  viability, T/C: 60.6%
[1]
  viability, T/C: 51.8%
[2]
  viability, T/C: 47.5%
Second compound 0.316 µM, first compound 0.000316 µM
  viability, T/C: 65.2%
Second compound 0.316 µM, first compound 0.001 µM
  viability, T/C: 73.6%
Second compound 0.316 µM, first compound 0.00316 µM
  viability, T/C: 57.7%
Second compound 0.316 µM, first compound 0.01 µM
  viability, T/C: 47.5%
[3]
  viability, T/C: 49.8%
[4]
  viability, T/C: 34.7%
Second compound 1 µM, first compound 0.000316 µM
  viability, T/C: 70.1%
Second compound 1 µM, first compound 0.001 µM
  viability, T/C: 59.1%
Second compound 1 µM, first compound 0.00316 µM
  viability, T/C: 45.8%
Second compound 1 µM, first compound 0.01 µM
  viability, T/C: 45.2%
[5]
  viability, T/C: 28.4%
[6]
  viability, T/C: 23.5%
Second compound 3.16 µM, first compound 0.000316 µM
  viability, T/C: 59.9%
Second compound 3.16 µM, first compound 0.001 µM
  viability, T/C: 49.9%
Second compound 3.16 µM, first compound 0.00316 µM
  viability, T/C: 38.4%
Second compound 3.16 µM, first compound 0.01 µM
  viability, T/C: 32%
[7]
  viability, T/C: 20.5%
[8]
  viability, T/C: 10.2%
Second compound 10 µM, first compound 0.000316 µM
  viability, T/C: 37.7%
Second compound 10 µM, first compound 0.001 µM
  viability, T/C: 35.2%
Second compound 10 µM, first compound 0.00316 µM
  viability, T/C: 24.8%
Second compound 10 µM, first compound 0.01 µM
  viability, T/C: 16.2%
[9]
  viability, T/C: 11.5%
[10]
  viability, T/C: 9.84%

## CC(C)NCC(C(=O)N1CCN(c2ncnc3c2C(C)CC3O)CC1)c1ccc(Cl)cc1 (stereo not given) + C=CC(=O)N1CCN(c2nc(OCC3CCCN3C)nc3c2CCN(c2cccc4cccc(C)c24)C3)CC1CC#N
Second compound 0.0316 µM
  IC50: < 0.0316 µM
Second compound 0.1 µM
  IC50: < 0.0316 µM
Second compound 0.316 µM
  IC50: < 0.0316 µM
Second compound 1 µM
  IC50: < 0.0316 µM
Second compound 3.16 µM
  IC50: < 0.0316 µM
Second compound 0.0316 µM, first compound 0.0316 µM
  viability, T/C: 36%
Second compound 0.0316 µM, first compound 0.1 µM
  viability, T/C: 33.7%
Second compound 0.0316 µM, first compound 0.316 µM
  viability, T/C: 24.6%
Second compound 0.0316 µM, first compound 1 µM
  viability, T/C: 22.8%
Second compound 0.0316 µM, first compound 3.16 µM
  viability, T/C: 22.4%
Second compound 0.0316 µM, first compound 10 µM
  viability, T/C: 19.8%
[1]
  viability, T/C: 28.5%
[2]
  viability, T/C: 27.5%
[11]
  viability, T/C: 18.6%
[12]
  viability, T/C: 20.1%
[13]
  viability, T/C: 17%
[14]
  viability, T/C: 13.4%
[3]
  viability, T/C: 33.9%
[4]
  viability, T/C: 29.3%
[15]
  viability, T/C: 21%
[16]
  viability, T/C: 19.5%
[17]
  viability, T/C: 18.6%
[18]
  viability, T/C: 15.4%
[5]
  viability, T/C: 38.6%
[6]
  viability, T/C: 32.3%
[19]
  viability, T/C: 24.6%
[20]
  viability, T/C: 18.2%
[21]
  viability, T/C: 15.3%
[22]
  viability, T/C: 13.3%
[7]
  viability, T/C: 8.92%
[8]
  viability, T/C: 7.61%
[23]
  viability, T/C: 4.92%
[24]
  viability, T/C: 2.79%
[25]
  viability, T/C: 3.43%
[26]
  viability, T/C: 0.37%

## O=C(c1cc(Cc2n[nH]c(=O)c3ccccc23)ccc1F)N1CCN(C(=O)C2CC2)CC1 + CNCc1ccccc1-c1csc(C(C)Nc2nc(C)nc3cc(OC)c(OC)cc23)c1
Second compound 0.1 µM
  IC50: > 10 µM
Second compound 0.316 µM
  IC50: > 10 µM
Second compound 1 µM
  IC50: > 10 µM
Second compound 3.16 µM
  IC50: 3.59 µM
Second compound 10 µM
  IC50: < 0.0316 µM
[1]
  viability, T/C: 88.1%
[2]
  viability, T/C: 95.4%
[11]
  viability, T/C: 80.6%
[12]
  viability, T/C: 79.5%
[13]
  viability, T/C: 74.1%
[14]
  viability, T/C: 81.6%
[3]
  viability, T/C: 69.6%
[4]
  viability, T/C: 58.8%
[15]
  viability, T/C: 63.9%
[16]
  viability, T/C: 52.8%
[17]
  viability, T/C: 61.5%
[18]
  viability, T/C: 60.5%
[5]
  viability, T/C: 78.1%
[6]
  viability, T/C: 72.2%
[19]
  viability, T/C: 68.3%
[20]
  viability, T/C: 71.5%
[21]
  viability, T/C: 67%
[22]
  viability, T/C: 64.4%
[7]
  viability, T/C: 46.5%
[8]
  viability, T/C: 80%
[23]
  viability, T/C: 84.2%
[24]
  viability, T/C: 0.72%
[25]
  viability, T/C: 69.7%
[26]
  viability, T/C: 0.31%
[9]
  viability, T/C: 0.22%
[10]
  viability, T/C: 0.82%
Second compound 10 µM, first compound 0.316 µM
  viability, T/C: 0.19%
Second compound 10 µM, first compound 1 µM
  viability, T/C: 0.61%
Second compound 10 µM, first compound 3.16 µM
  viability, T/C: 0.17%
Second compound 10 µM, first compound 10 µM
  viability, T/C: 0.2%
